Read-outs that look alike come from different tables or passages of the source.
Columns and labels:
[1] = molecular target: T1, JAK1 (Homo sapiens, UniProt P23458); assay: Biochemical JAK1 kinase assay (LanthaScreen); conditions: for Ki: read-out: JAK 1 (pKi) (converted)
T1 construct: GST; purchased Life Technologies
Summary of the method: (§1)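 GST-tagged JAK enzyme and GFP-STAT1 peptide preincubated with compound 1 h, then ATP added; 1 h kinase reaction at ambient temperature, pH 7.5 HEPES/MgCl2 buffer, 1% DMSO. Tb-anti-pSTAT1 (pTyr701) TR-FRET, 520/495 nm ratio; IC50 from 4-parameter fit, converted to pKi via Cheng-Prusoff.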

[2] = molecular target: T2, JAK3 (Homo sapiens, UniProt P52333); assay: Biochemical JAK3 kinase assay (LanthaScreen); set-up: GST; purchased Life Technologies; conditions: for Ki: read-out: JAK 3 (pKi) (converted)
T2 sequence (P52333 1-1124): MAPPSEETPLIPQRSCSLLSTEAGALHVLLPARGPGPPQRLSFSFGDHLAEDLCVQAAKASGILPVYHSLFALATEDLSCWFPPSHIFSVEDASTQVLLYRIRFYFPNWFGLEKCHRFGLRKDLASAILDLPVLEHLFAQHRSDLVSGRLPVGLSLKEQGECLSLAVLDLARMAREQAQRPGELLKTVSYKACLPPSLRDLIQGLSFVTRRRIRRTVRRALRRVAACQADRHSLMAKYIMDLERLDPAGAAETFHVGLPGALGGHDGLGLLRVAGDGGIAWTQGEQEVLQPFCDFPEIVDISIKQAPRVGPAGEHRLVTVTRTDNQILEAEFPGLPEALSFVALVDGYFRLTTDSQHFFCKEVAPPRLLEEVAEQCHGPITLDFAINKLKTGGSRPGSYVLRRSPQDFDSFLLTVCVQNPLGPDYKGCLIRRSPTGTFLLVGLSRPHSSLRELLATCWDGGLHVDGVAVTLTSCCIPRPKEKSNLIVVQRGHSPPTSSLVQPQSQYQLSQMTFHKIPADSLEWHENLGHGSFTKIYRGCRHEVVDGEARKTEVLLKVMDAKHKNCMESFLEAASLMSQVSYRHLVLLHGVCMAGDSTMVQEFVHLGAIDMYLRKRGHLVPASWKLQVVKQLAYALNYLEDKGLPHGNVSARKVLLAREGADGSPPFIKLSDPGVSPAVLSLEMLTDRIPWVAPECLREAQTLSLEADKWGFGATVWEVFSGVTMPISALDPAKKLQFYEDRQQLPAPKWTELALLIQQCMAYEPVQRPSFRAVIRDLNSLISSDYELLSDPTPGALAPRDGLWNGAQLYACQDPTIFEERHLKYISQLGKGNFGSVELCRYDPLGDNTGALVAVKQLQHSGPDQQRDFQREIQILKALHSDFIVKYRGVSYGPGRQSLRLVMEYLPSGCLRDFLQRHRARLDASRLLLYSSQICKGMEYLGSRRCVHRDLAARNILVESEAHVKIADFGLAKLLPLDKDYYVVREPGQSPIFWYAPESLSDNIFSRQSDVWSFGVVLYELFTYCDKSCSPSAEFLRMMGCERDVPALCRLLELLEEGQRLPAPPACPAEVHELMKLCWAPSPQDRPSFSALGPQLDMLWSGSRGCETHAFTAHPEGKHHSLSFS
Summary of the method: as §1

[3] = molecular target: T3, Tyk2 (Homo sapiens, UniProt P29597); assay: Biochemical Tyk2 kinase assay (LanthaScreen); conditions: for Ki: read-out: Tyk 2 (pKi) (converted)
T3 construct: GST; purchased Life Technologies
T3 sequence (P29597 whole entry): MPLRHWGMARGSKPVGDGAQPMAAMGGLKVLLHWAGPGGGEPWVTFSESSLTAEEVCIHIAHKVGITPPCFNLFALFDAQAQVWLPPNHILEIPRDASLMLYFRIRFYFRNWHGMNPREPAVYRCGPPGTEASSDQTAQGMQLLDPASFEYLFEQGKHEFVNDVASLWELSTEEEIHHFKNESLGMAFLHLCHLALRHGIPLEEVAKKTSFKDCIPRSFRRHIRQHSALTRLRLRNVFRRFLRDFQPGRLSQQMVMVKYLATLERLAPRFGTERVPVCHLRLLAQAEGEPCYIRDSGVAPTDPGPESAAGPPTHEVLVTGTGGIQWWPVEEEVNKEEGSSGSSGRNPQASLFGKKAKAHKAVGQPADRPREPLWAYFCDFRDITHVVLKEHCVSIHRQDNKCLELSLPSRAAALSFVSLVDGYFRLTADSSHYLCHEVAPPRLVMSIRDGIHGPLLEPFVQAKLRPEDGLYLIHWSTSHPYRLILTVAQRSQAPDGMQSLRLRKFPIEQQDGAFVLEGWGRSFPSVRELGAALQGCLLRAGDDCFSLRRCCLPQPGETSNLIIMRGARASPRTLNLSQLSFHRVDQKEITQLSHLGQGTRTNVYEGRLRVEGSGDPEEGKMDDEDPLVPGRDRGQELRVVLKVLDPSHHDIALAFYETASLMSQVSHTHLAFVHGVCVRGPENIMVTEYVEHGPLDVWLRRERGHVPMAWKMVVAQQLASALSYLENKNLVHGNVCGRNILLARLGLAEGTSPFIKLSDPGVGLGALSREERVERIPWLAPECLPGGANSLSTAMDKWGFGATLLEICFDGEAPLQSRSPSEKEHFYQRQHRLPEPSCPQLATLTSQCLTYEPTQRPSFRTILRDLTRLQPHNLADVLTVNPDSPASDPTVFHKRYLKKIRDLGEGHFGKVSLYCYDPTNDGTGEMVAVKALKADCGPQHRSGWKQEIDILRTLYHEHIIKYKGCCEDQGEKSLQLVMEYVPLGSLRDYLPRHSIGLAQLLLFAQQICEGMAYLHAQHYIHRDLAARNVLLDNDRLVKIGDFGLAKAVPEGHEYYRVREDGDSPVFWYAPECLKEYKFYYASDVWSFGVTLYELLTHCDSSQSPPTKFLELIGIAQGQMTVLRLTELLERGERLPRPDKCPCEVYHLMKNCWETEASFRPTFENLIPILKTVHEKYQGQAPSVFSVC
Summary of the method: as §1

[4] = molecular target: T4, JAK2 (Homo sapiens, UniProt O60674); assay: Biochemical JAK2 kinase assay (LanthaScreen); conditions: for Ki: read-out: JAK 2 (pKi) (converted)
T4 construct: GST; purchased Life Technologies
T4 sequence (O60674 whole entry): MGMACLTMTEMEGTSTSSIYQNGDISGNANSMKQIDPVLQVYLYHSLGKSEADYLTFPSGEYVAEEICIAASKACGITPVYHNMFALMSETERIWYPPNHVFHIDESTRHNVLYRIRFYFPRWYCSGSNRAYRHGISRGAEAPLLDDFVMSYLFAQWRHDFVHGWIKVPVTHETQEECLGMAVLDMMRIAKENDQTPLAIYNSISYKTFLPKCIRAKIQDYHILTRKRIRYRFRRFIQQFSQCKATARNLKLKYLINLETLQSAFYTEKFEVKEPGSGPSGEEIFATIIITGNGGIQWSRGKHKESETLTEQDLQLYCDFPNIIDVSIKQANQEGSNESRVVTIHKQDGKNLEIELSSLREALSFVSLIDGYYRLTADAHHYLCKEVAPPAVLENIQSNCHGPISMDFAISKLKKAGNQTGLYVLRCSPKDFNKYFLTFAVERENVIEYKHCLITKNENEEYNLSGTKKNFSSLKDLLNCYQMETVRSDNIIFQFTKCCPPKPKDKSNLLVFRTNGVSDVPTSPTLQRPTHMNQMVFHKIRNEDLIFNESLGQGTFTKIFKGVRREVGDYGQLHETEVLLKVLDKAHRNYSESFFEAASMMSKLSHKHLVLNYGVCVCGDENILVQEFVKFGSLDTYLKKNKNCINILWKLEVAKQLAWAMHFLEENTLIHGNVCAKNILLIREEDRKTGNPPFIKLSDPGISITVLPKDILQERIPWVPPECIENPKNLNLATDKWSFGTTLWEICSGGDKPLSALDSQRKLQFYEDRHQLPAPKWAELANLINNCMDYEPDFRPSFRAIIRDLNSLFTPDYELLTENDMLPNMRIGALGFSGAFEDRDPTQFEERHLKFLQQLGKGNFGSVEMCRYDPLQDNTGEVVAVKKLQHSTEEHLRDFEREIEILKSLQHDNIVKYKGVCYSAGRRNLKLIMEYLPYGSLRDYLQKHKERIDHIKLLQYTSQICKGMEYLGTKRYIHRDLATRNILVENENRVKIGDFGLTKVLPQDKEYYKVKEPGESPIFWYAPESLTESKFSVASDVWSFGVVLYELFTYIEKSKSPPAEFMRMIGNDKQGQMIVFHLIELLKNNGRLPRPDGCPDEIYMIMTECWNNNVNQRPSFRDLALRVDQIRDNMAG
Summary of the method: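 GST-tagged recombinant JAK2 pre-incubated 1 h at ambient temperature with compound and GFP-STAT1 peptide in HEPES pH 7.5/MgCl2 buffer, then ATP added for a 1 h reaction with 1% DMSO. TR-FRET read after EDTA and Tb-anti-pSTAT1 (pTyr701) addition; IC50 from 4-parameter fit, converted to pKi by Cheng-Prusoff.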

[5] = test system: IL-2 stimulated pSTAT5 in Tall-1 T cells; assay: Cellular JAK3 potency assay: inhibition of IL-2 stimulated pSTAT5 in Tall-1 T cells; type: cell-based, human; conditions: for IC50: Homo sapiens, read-out: Tall-1 (pIC50) (converted)
Summary of the method: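 Tall-1 human T cells (45,000/well) in phenol red-free DMEM with 10% FBS were preincubated with compound 1 h at 37 °C, then stimulated with IL-2 (final 300 ng/ml) for 30 min. Lysate pSTAT5 read by AlphaLisa; IC50 from inhibition curves, reported as pIC50 (mean±SD).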

[6] = selectivity JAK3 over JAK1, difference of pKi
[7] = TALL-1, IL-2 stimulated pSTAT5, Tall-1 T cells
[8] = IL-2 stimulated pSTAT5, Tall-1 T cells
[9] = selectivity: difference of pKi JAK3 and pKi JAK1
[10] = TALL-1, IL-2 stimulated pSTAT5 in Tall-1 T cells
[11] = IL-2 stimulated pSTAT5 in Tall-1 T cells

T1 sequence (P23458 whole entry): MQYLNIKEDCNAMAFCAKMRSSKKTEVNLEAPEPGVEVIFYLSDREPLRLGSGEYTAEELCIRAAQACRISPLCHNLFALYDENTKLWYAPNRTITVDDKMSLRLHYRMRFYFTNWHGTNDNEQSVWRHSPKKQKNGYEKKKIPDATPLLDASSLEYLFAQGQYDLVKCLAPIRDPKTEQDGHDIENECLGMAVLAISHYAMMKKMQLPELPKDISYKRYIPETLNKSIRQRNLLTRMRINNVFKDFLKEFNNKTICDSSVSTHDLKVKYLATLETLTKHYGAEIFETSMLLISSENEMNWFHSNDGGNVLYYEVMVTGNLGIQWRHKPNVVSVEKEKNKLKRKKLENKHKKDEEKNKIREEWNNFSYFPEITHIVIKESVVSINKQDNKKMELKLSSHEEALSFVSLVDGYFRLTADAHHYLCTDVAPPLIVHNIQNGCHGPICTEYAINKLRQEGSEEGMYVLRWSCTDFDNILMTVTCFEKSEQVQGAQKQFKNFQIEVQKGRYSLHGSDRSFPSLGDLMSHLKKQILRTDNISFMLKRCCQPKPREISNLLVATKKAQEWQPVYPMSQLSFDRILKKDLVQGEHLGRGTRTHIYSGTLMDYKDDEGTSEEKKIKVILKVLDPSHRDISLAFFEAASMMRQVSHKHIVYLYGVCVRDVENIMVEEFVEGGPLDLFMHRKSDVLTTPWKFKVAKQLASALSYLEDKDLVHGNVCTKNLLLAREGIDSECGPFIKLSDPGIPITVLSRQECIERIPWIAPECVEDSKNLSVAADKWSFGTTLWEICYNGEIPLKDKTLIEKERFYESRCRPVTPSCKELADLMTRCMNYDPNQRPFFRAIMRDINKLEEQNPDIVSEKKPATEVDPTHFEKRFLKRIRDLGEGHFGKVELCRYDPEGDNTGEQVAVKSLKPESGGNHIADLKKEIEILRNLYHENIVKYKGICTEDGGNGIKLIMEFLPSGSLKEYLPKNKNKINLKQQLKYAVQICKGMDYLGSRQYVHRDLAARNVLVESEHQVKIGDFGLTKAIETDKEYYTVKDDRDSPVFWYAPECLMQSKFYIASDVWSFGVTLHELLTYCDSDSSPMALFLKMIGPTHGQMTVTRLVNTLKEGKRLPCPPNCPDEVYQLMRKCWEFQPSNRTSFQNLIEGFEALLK

C=CC(=O)N1CCC(Oc2cc(-c3ccc(O)c(F)c3)nc3[nH]ncc23)CC1 [Compound 6-18]
Ki [1]: > 100 nM
Ki [2]: < 0.1 nM
JAK3 (pKi)-JAK1 (pKi) [2, 6]: A (a value of 3 or above)
Ki [3]: > 100 nM
Ki [4]: > 100 nM
IC50 [5, 7]: 31.6 to 200 nM

C=CC(=O)N1CCC(Oc2cc(-c3ccc(O)cc3)nc3[nH]ncc23)CC1C (stereo not drawn) [Compound 13-13]
JAK 1 (pKi) [1]: E (a pKi value of 7 or below (Ki of 100 nM or above))
JAK 3 (pKi) [2]: B (a pKi value between 9 and 10 (Ki between 1 nM and 0.1 nM))
JAK3 (pKi)-JAK1 (pKi) [2, 6]: A (a value of 3 or above)
Tyk 2 (pKi) [3]: E (a pKi value of 7 or below (Ki of 100 nM or above))
JAK 2 (pKi) [4]: E (a pKi value of 7 or below (Ki of 100 nM or above))
Tall-1 (pIC50) [5, 8]: C (a pIC50 value between 6 and 6.7 (IC50 between 1 μM and 200 nM))

C=CC(=O)N1CC[C@@H](Oc2cc(-c3ccc(O)cc3)cc3[nH]ncc23)C[C@@H]1C [Compound 12-30]
Ki [1]: > 100 nM
Ki [2]: < 0.1 nM
JAK3 (pKi)-JAK1 (pKi) [2, 6]: A (a value of 3 or above)
Ki [3]: > 100 nM
Ki [4]: 1 to 10 nM
IC50 [5, 7]: < 31.6 nM

C=CC(=O)N1CC(COc2nc(-c3ccc(O)c(F)c3)cc3[nH]ncc23)C1 [Compound 3-37]
Ki [1]: > 100 nM
Ki [2]: < 0.1 nM
JAK3 (pKi)-JAK1 (pKi) [2, 9]: A (a value of 3 or above)
Ki [3]: > 100 nM
Ki [4]: 10 to 100 nM
IC50 [5, 10]: < 31.6 nM

C=CC(=O)N1CC(S(=O)(=O)c2cc(-c3ccc(O)cc3)cc3[nH]ncc23)C1 [Compound 12-50]
Ki [1]: > 100 nM
Ki [2]: < 0.1 nM
JAK3 (pKi)-JAK1 (pKi) [2, 6]: A (a value of 3 or above)
Ki [3]: > 100 nM
Ki [4]: > 100 nM
IC50 [5, 7]: 31.6 to 200 nM

CCC1(COc2cc(-c3ccc(O)c(Cl)c3)cc3[nH]ncc23)CN(C(=O)/C=C/CN(C)C)C1 [Compound 3-15]
Ki [1]: > 100 nM
Ki [2]: < 0.1 nM
JAK3 (pKi)-JAK1 (pKi) [2, 9]: A (a value of 3 or above)
Ki [3]: > 100 nM
Ki [4]: > 100 nM
IC50 [5, 10]: 31.6 to 200 nM

CN(C)CC=CC(=O)N1CCCC(Oc2cc(-c3ccc(O)c(Cl)c3)cc3[nH]ncc23)C1 (stereo not drawn) [Compound 8-2]
JAK 1 (pKi) [1]: E (a pKi value of 7 or below (Ki of 100 nM or above))
JAK 3 (pKi) [2]: B (a pKi value between 9 and 10 (Ki between 1 nM and 0.1 nM))
JAK3 (pKi)-JAK1 (pKi) [2, 6]: A (a value of 3 or above)
Tyk 2 (pKi) [3]: E (a pKi value of 7 or below (Ki of 100 nM or above))
JAK 2 (pKi) [4]: D (a pKi value between 7 and 8 (Ki between 100 nM and 10 nM))
Tall-1 (pIC50) [5, 8]: B (a pIC50 value between 6.7 (included) and 7.5 (IC50 between 200 nM and 32 nM))

C=CC(=O)N1CCC(Cc2cc(-c3ccc(O)cc3)cc3[nH]ncc23)CC1 [Compound 14, 1-(4-((6-(4-hydroxyphenyl)-1H-indazol-4-yl)methyl)piperidin-1-yl)prop-2-en-1-one]
Ki [1]: > 100 nM
Ki [2]: 0.1 to 1 nM
JAK3 (pKi)-JAK1 (pKi) [2, 9]: A (a value of 3 or above)
Ki [3]: > 100 nM
Ki [4]: > 100 nM
IC50 [5, 10]: 31.6 to 200 nM

CN(C)C/C=C/C(=O)N1CC(C#N)(COc2nc(-c3ccc(O)c(Cl)c3)cc3[nH]ncc23)C1 [Compound 3-71]
JAK 1 (pKi) [1]: E (a pKi value of 7 or below (Ki of 100 nM or above))
JAK 3 (pKi) [2]: A (a pKi value≥10 (Ki≤0.1 nM))
JAK3 (pKi)-JAK1 (pKi) [2, 9]: A (a value of 3 or above)
Tyk 2 (pKi) [3]: E (a pKi value of 7 or below (Ki of 100 nM or above))
JAK 2 (pKi) [4]: E (a pKi value of 7 or below (Ki of 100 nM or above))
Tall-1 (pIC50) [5, 11]: A (a pIC50 value≥7.5 (IC50≤32 nM))

C=CC(=O)N1CC(CC)(COc2nc(-c3ccc(O)c(F)c3)cc3[nH]ncc23)C1 [Compound 3-101]
JAK 1 (pKi) [1]: E (a pKi value of 7 or below (Ki of 100 nM or above))
JAK 3 (pKi) [2]: A (a pKi value≥10 (Ki≤0.1 nM))
JAK3 (pKi)-JAK1 (pKi) [2, 9]: A (a value of 3 or above)
Tyk 2 (pKi) [3]: E (a pKi value of 7 or below (Ki of 100 nM or above))
JAK 2 (pKi) [4]: D (a pKi value between 7 and 8 (Ki between 100 nM and 10 nM))
Tall-1 (pIC50) [5, 11]: A (a pIC50 value≥7.5 (IC50≤32 nM))
